Source: PubChem BioAssay AID602191 (Broad Institute, 2012)
Activity calls are given as the source filed them.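 How the source made its calls: active means fitted curve reaches 40% activation at a concentration no higher than the top valid tested dose; inconclusive means flat fit between 30% and 70% activation, or poor fit; inactive means uptake decrease, flat fit within 30% of zero, the rest.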

Target: Scavenger receptor class B member 1 (Mus musculus) (UniProt Q61009)
Assay: activators of SR-BI-mediated HDL uptake, dose response, cell-based, ldlA[mSR-BI] CHO, DiI fluorescence, cherry-pick (AID 602191);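 further: cell fluorescence from internalized DiI-labeled HDL after washing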;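 on AC40: potency of activators raising HDL uptake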;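 on activation (HDL uptake increase): 0% = median of DMSO wells and 100% = twice the DMSO signal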
Conditions: ldlA[mSR-BI] CHO cells, 3 h

Sequence of Scavenger receptor class B member 1 (Mus musculus) (Q61009 whole entry, looked up): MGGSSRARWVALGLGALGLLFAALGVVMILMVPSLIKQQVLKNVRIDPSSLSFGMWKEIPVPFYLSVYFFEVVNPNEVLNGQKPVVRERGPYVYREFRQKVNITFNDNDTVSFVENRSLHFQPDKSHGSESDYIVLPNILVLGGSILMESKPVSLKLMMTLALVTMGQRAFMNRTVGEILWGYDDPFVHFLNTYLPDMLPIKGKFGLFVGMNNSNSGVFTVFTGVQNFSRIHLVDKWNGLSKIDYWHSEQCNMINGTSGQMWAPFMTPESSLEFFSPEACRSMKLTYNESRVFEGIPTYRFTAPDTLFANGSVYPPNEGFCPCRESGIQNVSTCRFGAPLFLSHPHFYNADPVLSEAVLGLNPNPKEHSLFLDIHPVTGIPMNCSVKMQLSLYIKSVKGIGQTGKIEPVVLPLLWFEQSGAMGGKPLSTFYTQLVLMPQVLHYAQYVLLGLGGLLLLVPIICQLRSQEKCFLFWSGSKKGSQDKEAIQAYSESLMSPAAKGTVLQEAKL

| Structure (SMILES) | AC40 |
| --- | --- |
| COc1ccc(S(=O)(=O)N(C)C[C@H]2Oc3c(NC(=O)Nc4ccc(C(F)(F)F)cc4)cccc3C(=O)N([C@H](C)CO)C[C@@H]2C)cc1 | 33.2 µM |
| Cc1ccc(OCC(=O)OC(C)C(=O)NC2CCCCC2C)cc1C (centres undefined) | > 35 µM (inactive) |
| CC(C)(C)NC(=O)C[C@H]1C[C@H](C(=O)N2CCOCC2)[C@@]2(CCC3CCCC3)c3[nH]c4ccc(Cl)cc4c3CCN2C1=O | > 35 µM (inactive) |

Same assay, conditions: ldlA[mSR-BI] CHO cells, 3 h, at 35 µM (top of the series)

| Structure (SMILES) | activation (HDL uptake increase) |
| --- | --- |
| COc1cc(C(CCN2CCCC(C)C2)c2c(OC)cc(OC)c3c(-c4ccccc4)cc(=O)oc23)cc(OC)c1OC (centres undefined) | -1.55% (inactive) |
| O=C(COC(=O)c1ccc[nH]c1=O)Nc1cc(S(=O)(=O)N2CCCCCC2)ccc1Cl | -9.61% (inactive) |
| COc1ccc(N2C(=O)C(CC(=O)Nc3ccc(F)cc3)N(CCc3cccs3)C2=O)cc1 (centres undefined) | -4.44% (inactive) |
| O=C(CCSc1nnc(-c2ccco2)o1)Nc1ccc(Cl)cc1 | -2.84% (inactive) |
| O=C(CSc1nnnn1-c1ccccc1)N1CCNC1=O | -10.4% (inactive) |
| O=C(Cn1c(=O)cnc2ccccc21)NNC(=O)c1ccc(Cl)cc1 | -5.85% (inactive) |
| COc1ccc(C(=O)NCc2nnc(SCC(=O)NCc3ccc(F)cc3)o2)cc1 | -16% (inactive) |
| O=C(COC(=O)c1cccs1)Nc1cccc(Cl)c1 | -3.43% (inactive) |
| CCC[C@@H](CNC)NC[C@H](Cc1ccccc1)NCCCCc1ccccc1 | -3.49% (inactive) |
| O=C1NCCCC1C(=O)NCCNC(=O)C(F)(F)F (centres undefined) | -6.55% (inactive) |
| O=C(CCCCCN1C(=O)c2ccccc2C1=O)Nc1ccc(C(=O)O)cc1 | -6.25% (inactive) |
| CCN(CC)C(=O)C1CC(=O)N(c2ccc(OC)cc2)C1c1ccc(OC)cc1 (centres undefined) | -8.42% (inactive) |
| CC1(C)NC(=O)N(CC(=O)N2CCN(S(=O)(=O)c3ccccc3C(F)(F)F)CC2)C1=O | -6.43% (inactive) |
| O=C(NCCCCc1ccccc1)C1CC(c2cccc(F)c2)=NO1 (centres undefined) | -4.48% (inactive) |
| COCCCNC(=O)CCSc1ccc(Cl)cc1 | -8.45% (inactive) |
| CCOC(=O)c1c(NC(=O)C2COc3ccccc3O2)sc2c1CC(C)(C)NC2(C)C (centres undefined) | -5.51% (inactive) |
| CN1CCN(C(=O)c2ccccc2NC(=O)c2ccccc2Br)CC1 | -7.48% (inactive) |
| CN(c1ccc(OCC(=O)OCC(=O)Nc2ccc([N+](=O)[O-])cc2)cc1)S(=O)(=O)c1cccs1 | -13.3% (inactive) |
| COc1ccccc1Cc1nnnn1CC(=O)O | -7.37% (inactive) |
| C=CC[C@@H](CC(=O)N[C@@H](CO)Cc1ccccc1)C(=O)N[C@@H](COC(=O)[C@@H](CC=C)Cc1ccc(F)cc1)Cc1c[nH]c2ccccc12 | -7.03% (inactive) |
| Cc1cccc(N2CCN(C(=S)c3ccc(-c4ccccc4[N+](=O)[O-])o3)CC2)c1 | -6.03% (inactive) |

| Structure (SMILES) | activation (HDL uptake increase) |
| --- | --- |
| Cc1c(C(=O)NCCN2CCOC2=O)oc2c(F)cccc12 | -0.811% (inactive) |
| CN(C)c1nc(C#N)nc(N2CCOCC2)n1 | 4.22% (inactive) |
| Cc1ccc(C2(CCNCc3ccc(N(C)C)cc3)CCOC(C(C)C)C2)cc1 (centres undefined) | -1.19% (inactive) |
| Cc1[nH]c2ccccc2c1C(=O)CSC(=S)N(C)C1CCCCC1 | -5.9% (inactive) |
| O=C(COC(=O)COc1ccccc1)NCCC1=CCCCC1 | 2.72% (inactive) |
| O=S(=O)(Nc1ccccc1OC(F)F)c1ccc(S(=O)(=O)N2CCCC2)cc1 | -11.8% (inactive) |
| COCCNC(=O)c1onc(CSc2cccc(OC)c2)c1C(=O)O | 11.9% (inactive) |
| COc1ccc(N2CCN(c3oc(-c4ccco4)nc3C#N)CC2)cc1 | 1.24% (inactive) |
| CCCCc1nc2cc(C(=O)NCc3ccccn3)ccc2o1 | -3.25% (inactive) |
| CC(C)N1CCc2[nH]c(=S)[nH]c(=O)c2C1 | -0.502% (inactive) |
| NC(=O)C1CCN(C(=O)C2CC(=O)N(c3ccc4c(c3)OCCO4)C2)CC1 (centres undefined) | -4.66% (inactive) |
| CN(C)CCN(C(=O)CN1C(=O)c2ccccc2C1=O)c1nc2cc3c(cc2s1)OCCO3 | -2.04% (inactive) |
| CCc1ccccc1NC(=O)CN1CCC(NC(=O)COC)CC1 | -1.48% (inactive) |
| O=C(CNC(=O)c1cncc(Br)c1)Nc1ccc(F)c(F)c1F | -11% (inactive) |
| O=C(c1ccc(Cl)cc1)C1CCCN(Cc2ccc3ncccc3c2)C1 (centres undefined) | 12.3% (inactive) |
| CCCCN(C(=O)c1cc2c(s1)CCC2)c1c(N)n(CC(C)C)c(=O)[nH]c1=O | -6.82% (inactive) |
| O=C(O)C1CCN(Cc2cnn(-c3ccccc3)c2-n2cccc2)CC1 | 6.93% (inactive) |
| COc1ccc(N2CC(NS(=O)(=O)c3cccnc3)CC2=O)cc1 (centres undefined) | -6.57% (inactive) |
| CC(=O)N1C2CCCCC2S[C@H]2CCCCC21 (some centres undefined) | -4.16% (inactive) |
| COCCN(CC(=O)Nc1cc(Cl)ccc1-n1cncn1)Cc1nc2ccccc2c(=O)[nH]1 | -4.92% (inactive) |
| CCCC(=O)Nc1cc(C(=O)O)ccc1S(=O)(=O)c1ccc(C)cc1 | 1.17% (inactive) |

| Structure (SMILES) | activation (HDL uptake increase) |
| --- | --- |
| CCOC(=O)N1CCN(C(=O)c2nn(C)c3c2CSc2ccccc2-3)CC1 | -12.2% (inactive) |
| COc1ccc(S(=O)(=O)N2CCOCC2)cc1NC(=O)COC(=O)C1CC2CCCC(C1)C2=O (centres undefined) | -6.79% (inactive) |
| CCN1CCN(C(c2cccc(OC)c2)c2sc3nc(C)nn3c2O)CC1 (centres undefined) | -1.19% (inactive) |
| COC(=O)Cc1csc(Nc2ccccc2)n1 | 0.176% (inactive) |
| COc1ccc(-n2nc(C(=O)N3CCN(Cc4ccc5c(c4)OCO5)CC3)c3ccccc3c2=O)cc1 | -5.05% (inactive) |
| Nc1nnc(SCC(=O)NN2C(=O)NC3(CCCCC3)C2=O)s1 | -7.59% (inactive) |
| COc1cc(-n2c(C)nc3cc(C(=O)NCC4CCCO4)ccc32)cc(OC)c1OC (centres undefined) | -12.1% (inactive) |
| O=C(CCNS(=O)(=O)c1cccs1)N1CCc2ccccc2C1 | -0.366% (inactive) |
| O=C(COC(=O)CNC(=O)c1ccc(Cl)cc1Cl)NCc1ccco1 | -5.97% (inactive) |
| CN(C)CCn1c2c(c(SCC(=O)NCc3ccccc3)nc1=O)CCCC2 | 5.5% (inactive) |
| CCc1nc(SCC(=O)Nc2ccc([N+](=O)[O-])cc2)n[nH]1 | -10.4% (inactive) |
| Cc1c(C(=O)N(C)C(C)c2ccncn2)oc2c(F)cccc12 (centres undefined) | -9.31% (inactive) |
| Cn1cc(CN2CCC(O)CC2)c(-c2ccc(Oc3ccccc3)cc2)n1 | -5.7% (inactive) |
| C[C@@H]1CN([C@@H](C)CO)C(=O)Cc2cc(NC(=O)Nc3ccc(F)cc3)ccc2O[C@@H]1CN(C)Cc1ccc(Cl)c(Cl)c1 | 94.8% (inactive) |
| O=S(=O)(c1ccccc1F)N1CCN(Cc2cc3c(cc2Br)OCCO3)CC1 | -16.4% (inactive) |
| Cc1ccc(CN2CCNC(=O)C2CC(=O)N2CCN(c3ncccn3)CC2)o1 (centres undefined) | -8.96% (inactive) |
| CCOc1ccc(N(C(=O)c2ccc3c(c2)OCO3)C2C=CS(=O)(=O)C2)cc1 (centres undefined) | -7.61% (inactive) |
| Cc1csc(SCC(=O)Nc2cc(C(N)=O)cc(C(N)=O)c2)n1 | -3.94% (inactive) |
| CC(C)CCNCC(=O)NC(c1ccccc1)c1ccccc1 | -2.56% (inactive) |
| O=C1C(=O)N(CNc2cccnc2)c2ccccc21 | -7.96% (inactive) |
| CC(=O)Oc1ccc2oc(=O)c3c(c2c1)CCCN3C(=O)CN1CCN(c2ncccn2)CC1 | -12.6% (inactive) |

| Structure (SMILES) | activation (HDL uptake increase) |
| --- | --- |
| O=C1CCC(=O)N1c1ccc(S(=O)(=O)Nc2cccc(Br)c2)cc1 | -7.52% (inactive) |
| O=C1CN(C(=O)COC(=O)C2=COCCO2)c2ccccc2N1 | 7.62% (inactive) |
| COc1ccc(C(C(=O)NC2CCCCC2)N(C(=O)CCl)c2ccc(C)cc2)cc1 (centres undefined) | -7.32% (inactive) |
| CCOC(=O)C1CCCN(C(=O)CS(=O)(=O)Cc2ccccc2)C1 (centres undefined) | 7.75% (inactive) |
| O=C(CCNC(=O)c1ccccc1Cl)NN1C(=O)NC2(CCCCC2)C1=O | -10.8% (inactive) |
| CC(C)C[C@@H](CN1CCCC1CN1C(=S)NC[C@@H]1Cc1ccc(O)cc1)N1C[C@H](Cc2ccc(O)cc2)N(CCc2ccccc2)C1=S (some centres undefined) | 39.2% (inactive) |
| CCc1cc(C(=O)Nc2cc(S(=O)(=O)N3CCOCC3)ccc2N2CCN(CC)CC2)sc1C | -0.114% (inactive) |
| COc1ccc(N2CC(NC(=O)N3CCN(C(=O)c4ccco4)CC3)CC2=O)cc1OC (centres undefined) | 11% (inactive) |
| CCCCCC(=O)Nc1cc(S(=O)(=O)N2CCOCC2)ccc1N1CCCCC1 | -0.494% (inactive) |
| CC(C)CCNC(=O)c1onc(CSc2ccncc2)c1C(=O)NCCC(C)C | 3.64% (inactive) |
| CCn1c(COC(=O)CNC(=O)c2ccccc2)nc2cc(S(=O)(=O)N(C)C)ccc21 | -13.2% (inactive) |
| CNC(=O)c1ccc(N(Cc2ccccc2C)S(C)(=O)=O)cc1 | -9.16% (inactive) |
| COc1ccc(NC(=O)COC(=O)c2cc(SC)ccc2Cl)c(OC)c1 | -14.1% (inactive) |
| CN1OC[C@@H]2CN[C@H](c3cccc(-c4cc(Cl)cc(Cl)c4)c3)C[C@@H]21 | 5.62% (inactive) |
| CC(CN(C)Cc1ccccc1)OC(=O)c1cccc(F)c1 (centres undefined) | -8.97% (inactive) |
| CCCCn1c(N)c(N(CCOC)C(=O)C2CC(=O)N(Cc3ccco3)C2)c(=O)[nH]c1=O (centres undefined) | 0.156% (inactive) |
| CC(=O)N1CCN(S(=O)(=O)c2cccc(C(=O)Nc3cc(C(F)(F)F)ccc3N3CCOCC3)c2)CC1 | -3.42% (inactive) |
| CN(C(=O)COC(=O)c1cccc(S(=O)(=O)N2CCOCC2)c1)C1CCS(=O)(=O)C1 (centres undefined) | 5.01% (inactive) |
